Test results taken from patent US20230339970A1, “CASEIN KINASE 1 DELTA MODULATORS” (priority 2020, published 2023).

Key:
[1] = molecular target: T1, human recombinant GST cleaved CSNK1D (Homo sapiens, UniProt P48730); assay: Purified Enzyme Assay (ADP-Glo CSNK1D Kinase Assay); format: biochemical; settings: 2 nM CSNK1D; peptide substrate 150 μM; ATP 20 μM; 45 minutes at room temperature
T1 construct: GST (cleaved yes); purchased University of Dundee clone DU 19064
Experimental: In this assay, CSNK1D phosphorylates a substrate peptide PLSRTL-pS-VASLPGL in the presence of ATP. […] This assay monitors CSNK1D kinase activity by measuring the amount of ADP produced in the assay.
The substrate mix is added to each well of a low volume, 384-well, white opaque plate. Test compounds were diluted in HBSS and added in a dose-response to the plate.
The total volume of each reaction is 5 ul (2 μL of substrate mix, 1 μL of diluted compounds, and 2 μL of human recombinant CSNK1D). The plates are incubated for 45 minutes at room temperature.
ADP was quantified using the ADP-Glo™ Kinase Assay. ADP-Glo Reagent (5 μL) was added to each well. After a 1 hour incubation at room temperature, Kinase Detection Reagent (10 μL) was added to each well and incubated for 30 minutes. […] The raw data from the Envision is used to calculate percent activity.

human CSNK1D = molecular target: T2, human CSNK1D (Homo sapiens, UniProt P48730); assay: Whole Cell nBRET CSNK1D Binding Assay; settings: living CHO cells stably expressing human CSNK1D tagged with nanoluciferase; NanoBret tracer 130 nM; 2 hours at 37 C
T2 construct: expressed in transfected cells
T2 sequence (P48730 whole entry): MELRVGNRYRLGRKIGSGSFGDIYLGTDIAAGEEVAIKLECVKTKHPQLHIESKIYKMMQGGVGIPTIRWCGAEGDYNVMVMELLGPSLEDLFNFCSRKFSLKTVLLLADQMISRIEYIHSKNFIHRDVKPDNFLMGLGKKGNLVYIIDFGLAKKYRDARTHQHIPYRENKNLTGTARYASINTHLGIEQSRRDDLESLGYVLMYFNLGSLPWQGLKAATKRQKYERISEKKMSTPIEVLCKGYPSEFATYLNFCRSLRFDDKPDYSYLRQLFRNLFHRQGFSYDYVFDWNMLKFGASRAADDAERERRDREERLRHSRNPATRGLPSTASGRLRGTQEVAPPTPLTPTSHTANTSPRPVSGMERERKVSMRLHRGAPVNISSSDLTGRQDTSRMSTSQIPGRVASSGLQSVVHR

T1 sequence (P48730 whole entry): as above

| Compound | IC50 [1] | IC50 (human CSNK1D) |
| --- | --- | --- |
| Fc1ccc(-c2nn3c(c2-c2ccnc4[nH]ncc24)C2CC2C3)nc1 (racemic) [Example 23, 2-(5-Fluoropyridin-2-yl)-3-(1H-pyrazolo[3,4-b]pyridin-4-yl)-3b,4,4a,5-tetrahydrocyclopropa[3,4]pyrrolo[1,2-b]pyrazole] | 3 nM | 48 nM |
| Cc1cc(-c2c(-c3ccc(F)cn3)nn3c2C2CC2C3)c2cn[nH]c2n1 (racemic) [Example 24, 2-(5-Fluoropyridin-2-yl)-3-(6-methyl-1H-pyrazolo[3,4-b]pyridin-4-yl)-3b,4,4a,5-tetrahydrocyclopropa[3,4]pyrrolo[1,2-b]pyrazole] | 4 nM | 55 nM |
| Cc1cc(-c2c(-c3ccc(F)cn3)nn3c2CCC2CC23)c2cn[nH]c2n1 (racemic) [Example 57, (Racemic) 2-(5-Fluoropyridin-2-yl)-3-(6-methyl-1H-pyrazolo[3,4-b]pyridin-4-yl)-5,5a,6,6a-tetrahydro-4H-cyclopropa[e]pyrazolo[1,5-a]pyridine] | 6 nM | 57 nM |
| Fc1ccc(-c2nn3c(c2-c2ccnc4[nH]ncc24)CCC2C3C2(F)F)nc1 (racemic) [Example 58, (Racemic) 6,6-Difluoro-2-(5-fluoropyridin-2-yl)-3-(1H-pyrazolo[3,4-b]pyridin-4-yl)-5,5a,6,6a-tetrahydro-4H-cyclopropa[e]pyrazolo[1,5-a]pyridine] | 5 nM | 65 nM |
| Cc1cc(-c2c(-c3ccc(F)cn3)nn3c2CCC2C3C2(F)F)c2cn[nH]c2n1 (racemic) [Example 59, (Racemic) 6,6-Difluoro-2-(5-fluoropyridin-2-yl)-3-(6-methyl-1H-pyrazolo[3,4-b]pyridin-4-yl)-5,5a,6,6a-tetrahydro-4H-cyclopropa[e]pyrazolo[1,5-a]pyridine] | 4 nM | 82 nM |
| Cc1cc(-c2c(-c3ccc(F)cc3)nn3c2OCC(C)C3)c2cn[nH]c2n1 (racemic) [Example 192, (R/S)-2-(4-Fluorophenyl)-6-methyl-3-(6-methyl-1H-pyrazolo[3,4-b]pyridin-4-yl)-6,7-dihydro-5H-pyrazolo[5,1-b][1,3]oxazine] | 1 nM | 4 nM |
| Fc1ccc(-c2nn3c(c2-c2ccnc4[nH]ncc24)C2CC2C3)cc1 (racemic) [Example 275, (Racemic) 2-(4-Fluorophenyl)-3-(1H-pyrazolo[3,4-b]pyridin-4-yl)-3b,4,4a,5-tetrahydrocyclopropa[3,4]pyrrolo[1,2-b]pyrazole] | 1 nM | 9 nM |
| CC1(CF)CCc2c(-c3cc(F)ncc3F)c(-c3ccc(F)cn3)nn2C1 (racemic) [Example 288, 3-(2,5-Difluoro-4-pyridyl)-6-(fluoromethyl)-2-(5-fluoro-2-pyridyl)-6-methyl-5,7-dihydro-4H-pyrazolo[1,5-a]pyridine] | 238 nM | 4100 nM |
| CC1(CC2COC2)CCc2c(-c3ccnc4[nH]ncc34)c(-c3ccc(F)cn3)nn2C1 (single isomer, unassigned) [Example 321, (*S)-4-(2-(5-Fluoropyridin-2-yl)-6-methyl-6-(oxetan-3-ylmethyl)-4,5,6,7-tetrahydropyrazolo[1,5-a]pyridin-3-yl)-1H-pyrazolo[3,4-b]pyridine] |  | 37 nM |
| Fc1ccc(-c2nn3c(c2-c2ccnc4[nH]ncc24)COC(C(F)(F)F)C3)cc1 (stereo not shown) [Example 99, 2-(4-Fluorophenyl)-3-(1H-pyrazolo[3,4-b]pyridin-4-yl)-6-(trifluoromethyl)-6,7-dihydro-4H-pyrazolo[5,1-c][1,4]oxazine] |  | 54 nM |
| FCC1Cn2nc(-c3ccc(F)cc3)c(-c3cnc4[nH]ncc4c3)c2CO1 (stereo not shown) [Example 103, 6-(Fluoromethyl)-2-(4-fluorophenyl)-3-(1H-pyrazolo[3,4-b]pyridin-5-yl)-6,7-dihydro-4H-pyrazolo[5,1-c][1,4]oxazine] |  | 15 nM |
